≈ marks a conversion by molar mass, not a printed value. Where two headings read alike, the source gives them in different places.
Legend:
E. coli AR-0001 [1] = test: Broth microdilution MIC, E. coli AR-0001; assay type: cell-based, Escherichia coli; settings: for MIC: Escherichia coli, AR0001, read-out: minimal inhibitory concentration (MIC) E. coli AR-0001; for minimal inhibitory concentration (MIC) E. coli AR-0001: multidrug-resistant, KPC-3, CAMHB
Text: (§1) The multidrug-resistant S. aureus strain TCH 1516 [USA 300-HOU-MR] was obtained from the American Type Culture Collection (ATCC, Manassas, VA, USA) (Table 1). E. faecalis AR-0671, multidrug-resistant E. coli AR-0001, K. pneumoniae AR-0003, P. aeruginosa AR-1114, and A. baumannii AR-0273 strains were acquired from the Centers for Disease Control and Prevention (CDC) AR isolate bank (Table 1). Prior to the initiation of this study, all microbial strains were stored in commercial cryopreservation systems at a temperature of −80 °C. The strains were cultivated on Columbia sheep blood agar (Becton Dickinson, Franklin Lakes, NJ, USA) or potato dextrose agar (PDA) for Candida (Becton Dickinson, Franklin Lakes, NJ, USA).
(§2) The antimicrobial activity of 3-((3-hydroxyphenyl)amino)propanoic acid derivatives was assessed by using the broth microdilution method, following the guidelines outlined by the Clinical Laboratory Standards Institute (CLSI), with modifications. In brief, the compounds were dissolved in dimethyl sulfoxide (DMSO) to attain a final concentration of 25–30 mg/mL. Vancomycin hydrochloride (MedChem express, Cat. No. HY-17362), cefazolin (MedChem express, Cat. No. HY-B1892), and meropenem (MedChem express, Cat. No. HY-13678) were used as control antimicrobial drugs and were dissolved in DMSO as described before. Dilution series were prepared in deep 96-well microplates to achieve a two-fold concentration range of 0.25, 0.5, 1, 2, 4, 8, 16, 32, and 64 µg/mL, utilizing cation-adjusted Mueller–Hinton broth (CAMHB) as the growth medium. The microplates containing the dilution series were then inoculated with fresh cultures of each tested organism to reach a final concentration of 5 × 10^4 CFU (colony-forming units) of the test organism in media containing 1% DMSO and 1× drug concentration, with a volume of 200 µL per well. Wells that were inoculated with medium containing 1% DMSO served as positive controls. Subsequently, the microplates were incubated at 35 ± 1 °C for 18 ± 2 h. Following the incubation period, the plates were examined by using a manual microplate viewer (Sensititre Manual Viewbox, ThermoFisher Scientific, Waltham, MA, USA). […] All experiments were conducted in duplicate with three technical replicates for each condition.

K. pneumoniae AR-0003 [2] = test: Broth microdilution MIC, K. pneumoniae AR-0003; assay type: cell-based, Klebsiella pneumoniae; settings: for MIC: Klebsiella pneumoniae, AR0003, read-out: minimal inhibitory concentration (MIC) K. pneumoniae AR-0003; for minimal inhibitory concentration (MIC) K. pneumoniae AR-0003: KPC-3, CAMHB
Text: as §1, §2

P. aeruginosa AR-1114 [3] = test: Broth microdilution MIC, P. aeruginosa AR-1114; assay type: cell-based, Pseudomonas aeruginosa; settings: for MIC: Pseudomonas aeruginosa, AR1114, read-out: minimal inhibitory concentration (MIC) P. aeruginosa AR-1114; for minimal inhibitory concentration (MIC) P. aeruginosa AR-1114: IMP-15, CAMHB
Text: as §1, §2

A. baumannii AR-0273 = test: Broth microdilution MIC, A. baumannii AR-0273; assay type: cell-based, Acinetobacter baumannii; settings: for MIC: Acinetobacter baumannii
Text: as §1, §2

S. aureus TCH 1516 [4] = test: Broth microdilution MIC, S. aureus TCH 1516; assay type: cell-based; settings: Staphylococcus aureus
E. faecalis AR-0671 = test: Broth microdilution MIC, E. faecalis AR-0671; assay type: cell-based, Enterococcus faecalis; settings: for MIC: Enterococcus faecalis
Text: as §1, §2

K. pneumoniae AR-0003 [5] = test: Broth microdilution MIC, K. pneumoniae AR-0003; assay type: cell-based; settings: Klebsiella pneumoniae, AR0003; KPC-3; CAMHB, 18 ± 2 h; read-out: minimal inhibitory concentration (MIC) K. pneumoniae AR-0003
P. aeruginosa AR-1114 [6] = test: Broth microdilution MIC, P. aeruginosa AR-1114; assay type: cell-based; settings: Pseudomonas aeruginosa, AR1114; IMP-15; CAMHB, 18 ± 2 h; read-out: minimal inhibitory concentration (MIC) P. aeruginosa AR-1114
E. coli AR-0001 [7] = test: Broth microdilution MIC, E. coli AR-0001; assay type: cell-based; settings: Escherichia coli, AR0001; multidrug-resistant, KPC-3; CAMHB, 18 ± 2 h; read-out: minimal inhibitory concentration (MIC) E. coli AR-0001
FaDu cells = test: MTT cell viability at fixed 100 µM, FaDu cells; assay type: cell-based; settings: 24 h, described in words (Figure 2)
Description: Test compounds 2–25 were dissolved in hybridoma-grade dimethyl sulfoxide (Millipore, Sigma, Burlington, MA, USA) to prepare stock solutions at concentrations of 10–25 mg/mL. […] For in vitro anticancer activity screening, the compounds were thawed at room temperature, protected from light, and the aliquots were diluted in complete cell culture media to achieve a final concentration of 100 µM and used for the in vitro assays. The cytotoxicity assays were performed in triplicate.
FaDu cells were obtained from the American Type Culture Collection (Rockville, MD, USA). HEK293 cells were kindly provided by Dr. Iliev lab at the Jill Roberts Institute for Inflammatory Bowel Disease, Weill Cornel Medicine of Cornel University (New York, NY, USA). All cells were cultivated in Dulbecco’s Modified Eagle Medium/Nutrient Mixture F-12 (DMEM/F-12) (Gibco, Waltham, MA, USA), 10% fetal bovine serum (FBS) (Gibco, Waltham, MA, USA), 100 U/mL penicillin, and 100 μg/mL streptomycin (P/S) (Gibco, Waltham, MA, USA). Culturing conditions were maintained at 37 °C in a humidified atmosphere containing 5% CO2. The culture medium was refreshed every 2–3 days, and cells were passaged upon reaching 70–80% confluence.
The in vitro inhibitory effects of the compounds were assessed by using the MTT assay. Briefly, cells were plated in 96-well plates at a density of 1 × 10⁴ cells per well. After the cells were allowed to adhere overnight at 37 °C in 5% CO₂, they were treated with compounds at a concentration of 100 µM in triplicate. Following a 20 h incubation, the MTT reagent was added, and the cells were further incubated for 4 h. The resulting formazan was solubilized in anhydrous DMSO, and absorbance was measured at 570 nm by using a microplate reader. Cell viability was calculated by using the following formula: ([AE − AB]/[AC − AB]) × 100%, where AE, AC, and AB represent the absorbance values of experimental samples, untreated controls, and blank wells, respectively. Data analysis was performed by using GraphPad Prism or QuickCalcs.

S. aureus TCH 1516 [8] = test: Broth microdilution MIC, S. aureus TCH 1516; assay type: cell-based, Staphylococcus aureus; settings: mecA MRSA isolate, USA300 lineage; CAMHB, 18 ± 2 h
Text: as §1, §2

[9] = AR0273, read-out: minimal inhibitory concentration (MIC) A. baumannii AR-0273
[10] = MRSA / USA300, read-out: minimal inhibitory concentration (MIC) S. aureus TCH 1516
[11] = AR0671, read-out: minimal inhibitory concentration (MIC) E. faecalis AR-0671
[12] = AR0273, OXA-23, CAMHB, 18 ± 2 h, read-out: minimal inhibitory concentration (MIC) A. baumannii AR-0273
[13] = MRSA / USA300, mecA MRSA isolate, USA300 lineage, CAMHB, 18 ±, read-out: minimal inhibitory concentration (MIC) S. aureus TCH 1516
[14] = AR0671, CAMHB, 18 ± 2 h, read-out: minimal inhibitory concentration (MIC) E. faecalis AR-0671

SMILES	MIC (E. coli AR-0001 [1]) [µg/mL]	MIC (K. pneumoniae AR-0003 [2]) [µg/mL]	MIC (P. aeruginosa AR-1114 [3]) [µg/mL]	MIC (A. baumannii AR-0273; [9]) [µg/mL]	MIC (S. aureus TCH 1516 [4]; [10]) [µg/mL]	MIC (E. faecalis AR-0671; [11]) [µg/mL]	MIC (K. pneumoniae AR-0003 [5]) [µg/mL]	minimal inhibitory concentration (MIC) E. coli AR-0001 (E. coli AR-0001 [1]) [µg/mL]	minimal inhibitory concentration (MIC) K. pneumoniae AR-0003 (K. pneumoniae AR-0003 [2]) [µg/mL]	MIC (P. aeruginosa AR-1114 [6]) [µg/mL]	minimal inhibitory concentration (MIC) P. aeruginosa AR-1114 (P. aeruginosa AR-1114 [3]) [µg/mL]	MIC (A. baumannii AR-0273; [12]) [µg/mL]	minimal inhibitory concentration (MIC) A. baumannii AR-0273 (A. baumannii AR-0273; OXA-23, CAMHB) [µg/mL]	MIC (S. aureus TCH 1516 [4]; [13]) [µg/mL]	MIC (E. coli AR-0001 [7]) [µg/mL]	minimal inhibitory concentration (MIC) E. faecalis AR-0671 (E. faecalis AR-0671; CAMHB) [µg/mL]	MIC (E. faecalis AR-0671; [14]) [µg/mL]	post-treatment viability (MTT assay) (FaDu cells)	minimal inhibitory concentration (MIC) S. aureus TCH 1516 (S. aureus TCH 1516 [8]) [µg/mL]
O=C(CCN(CCC(=O)NN=Cc1ccc([N+](=O)[O-])s1)c1cccc(O)c1)NN=Cc1ccc([N+](=O)[O-])s1 [Compound 16, 3,3′-((3-Hydroxyphenyl)azanediyl)bis(N′-((5-nitrothiophen-2-yl)methylene)propanehydrazide)]	32 (≈ 57.2 µM)	> 64	> 64	> 64	1 (≈ 1.79 µM)	4 (≈ 7.15 µM)													
NNC(=O)CCN(CCC(=O)NN)c1cccc(O)c1 [Compound 4, 3,3′-((3-Hydroxyphenyl)azanediyl)di(propanehydrazide)]							> 64	>64	>64	> 64	>64	> 64	>64	8 (≈ 28.4 µM)	> 64	>64	> 64	moderate decrease in viability	
CC(C)=NNC(=O)CCN(CCC(=O)NN=C(C)C)c1cccc(O)c1 [Compound 19, 3,3′-((3-Hydroxyphenyl)azanediyl)bis(N′-(propan-2-ylidene)propanehydrazide)]							> 64	>64	>64	> 64	>64	> 64	>64	> 64	> 64	>64	> 64	lower activity compared with compound 22	>64
O=C(CCN(CCC(=O)N/N=C/c1ccc([N+](=O)[O-])o1)c1cccc(O)c1)N/N=C/c1ccc([N+](=O)[O-])o1 [Compound 17]	> 64	> 64	> 64	> 64	16 (≈ 30.3 µM)	> 64										>64			
O=C(CCN(CCC(=O)NN=Cc1ccccc1)c1cccc(O)c1)NN=Cc1ccccc1 [Compound 8, 3,3′-((3-Hydroxyphenyl)azanediyl)bis(N′-(benzylidene)propanehydrazide)]							> 64	>64	>64	> 64	>64	> 64	>64	> 64	> 64	>64	> 64		>64
O=C(O)CCN1CCC(=O)c2ccc(O)cc21 [Compound 7, 3-(7-Hydroxy-4-oxo-3,4-dihydroquinolin-1(2H)-yl)propanoic Acid]							> 64	>64	>64	> 64	>64	> 64	>64	> 64	> 64	>64	> 64		>64
COc1cc(C=NNC(=O)CCN(CCC(=O)NN=Cc2cc(OC)c(OC)c(OC)c2)c2cccc(O)c2)cc(OC)c1OC [Compound 13, 3,3′-((3-Hydroxyphenyl)azanediyl)bis(N′-(3,4,5-trimethoxybenzylidene)propanehydrazide)]							> 64	>64	>64	> 64	>64	> 64	>64	> 64	> 64	>64	> 64		>64
O=C(CCN(CCC(=O)NN=Cc1ccc([N+](=O)[O-])cc1)c1cccc(O)c1)NN=Cc1ccc([N+](=O)[O-])cc1 [Compound 10, 3,3′-((3-Hydroxyphenyl)azanediyl)bis(N′-(4-nitrobenzylidene)propanehydrazide)]	> 64	> 64	> 64	> 64	4 (≈ 7.31 µM)	16 (≈ 29.2 µM)													
O=C(CCN(CCC(=O)N/N=C/c1ccsc1)c1cccc(O)c1)N/N=C/c1ccsc1 [Compound 18]							> 64	>64	>64	> 64	>64	> 64	>64	> 64	> 64	>64	> 64		>64

Source: paper PMC12115217, “3,3′-((3-Hydroxyphenyl)azanediyl)dipropionic Acid Derivatives as a Promising Scaffold Against Drug-Resistant Pathogens and Chemotherapy-Resistant Cancer” (Pathogens, 2025)
